Experiments:
[1] = 101 kPa, Liquid, Vibrating tube method
[2] = xn = mol fraction of the nth substance listed; details: 101 kPa, Liquid, Vibrating tube method

CO [methanol]
[1]
Details | mass density [kg/m3]
283.15 K | 801.254
293.15 K | 791.866
303.15 K | 782.43
313.15 K | 772.902
323.15 K | 763.244
333.15 K | 753.389

NCCO [2-aminoethan-1-ol]
[1]
Details | mass density [kg/m3]
283.15 K | 1024.11
293.15 K | 1016.23
303.15 K | 1008.32
313.15 K | 1000.37
323.15 K | 992.364
333.15 K | 984.301
343.15 K | 976.153

OCCO [1,2-ethanediol]
[1]
Details | mass density [kg/m3]
283.15 K | 1119.29
293.15 K | 1112.37
303.15 K | 1105.39
313.15 K | 1098.34
323.15 K | 1091.21
333.15 K | 1083.99
343.15 K | 1076.65

NCCOCCO [2-(2-aminoethoxy)ethanol] + OCCO
mass density [kg/m3], [2]
Details | x2 = 0 | x2 = 0.0999 | x2 = 0.1998 | x2 = 0.2998 | x2 = 0.4001 | x2 = 0.4999 | x2 = 0.5999 | x2 = 0.7002 | x2 = 0.8 | x2 = 0.8998
283.15 K | 1063.9 | 1069.41 | 1074.47 | 1079.73 | 1084.82 | 1090.24 | 1095.7 | 1101.26 | 1107.46 | 1113.95
293.15 K | 1055.86 | 1061.43 | 1066.58 | 1071.94 | 1077.11 | 1082.67 | 1088.26 | 1093.92 | 1100.25 | 1106.86
303.15 K | 1047.8 | 1053.44 | 1058.65 | 1064.1 | 1069.38 | 1075.06 | 1080.79 | 1086.54 | 1093 | 1099.72
313.15 K | 1039.73 | 1045.41 | 1050.69 | 1056.23 | 1061.6 | 1067.42 | 1073.26 | 1079.13 | 1085.7 | 1092.53
323.15 K | 1031.63 | 1037.35 | 1042.69 | 1048.31 | 1053.78 | 1059.7 | 1065.66 | 1071.68 | 1078.32 | 1085.26
333.15 K | 1023.46 | 1029.22 | 1034.63 | 1040.32 | 1045.89 | 1051.9 | 1057.97 | 1064.11 | 1070.86 | 1077.9
343.15 K | 1015.24 | 1021.03 | 1026.5 | 1032.27 | 1037.92 | 1044.03 | 1050.2 | 1056.51 | 1063.3 | 1070.45

CC(C)O [propan-2-ol]
[1]
Details | mass density [kg/m3]
283.15 K | 794.005
293.15 K | 785.764
303.15 K | 777.284
313.15 K | 768.476
323.15 K | 759.309
333.15 K | 749.679
343.15 K | 739.528

CO [methanol] + NCCO
[2], x1 = 1
Details | mass density [kg/m3]
283.15 K | 801.254
293.15 K | 791.866
303.15 K | 782.43
313.15 K | 772.902
323.15 K | 763.244
333.15 K | 753.389

NCCOCCO [2-(2-aminoethoxy)ethanol]
[1]
Details | mass density [kg/m3]
283.15 K | 1063.9
293.15 K | 1055.86
303.15 K | 1047.8
313.15 K | 1039.73
323.15 K | 1031.63
333.15 K | 1023.46
343.15 K | 1015.24

NCCO [2-aminoethan-1-ol] + OCCO
mass density [kg/m3], [2]
Details | x2 = 0 | x2 = 0.1002 | x2 = 0.2 | x2 = 0.2998 | x2 = 0.3999 | x2 = 0.5001 | x2 = 0.5999 | x2 = 0.7 | x2 = 0.8002 | x2 = 0.8999
283.15 K | 1024.11 | 1035.45 | 1046.35 | 1056.77 | 1066.86 | 1076.47 | 1085.82 | 1094.87 | 1103.84 | 1112.47
293.15 K | 1016.23 | 1027.68 | 1038.7 | 1049.24 | 1059.48 | 1069.16 | 1078.59 | 1087.73 | 1096.76 | 1105.44
303.15 K | 1008.32 | 1019.88 | 1031.01 | 1041.67 | 1052.04 | 1061.82 | 1071.33 | 1080.56 | 1089.64 | 1098.37
313.15 K | 1000.37 | 1012.03 | 1023.26 | 1034.05 | 1044.53 | 1054.42 | 1064.02 | 1073.32 | 1082.46 | 1091.24
323.15 K | 992.364 | 1004.13 | 1015.46 | 1026.35 | 1036.96 | 1046.93 | 1056.62 | 1066.01 | 1075.21 | 1084.05
333.15 K | 984.301 | 996.181 | 1007.58 | 1018.58 | 1029.3 | 1039.37 | 1049.14 | 1058.6 | 1067.87 | 1076.77
343.15 K | 976.153 | 988.118 | 999.618 | 1010.71 | 1021.54 | 1031.7 | 1041.55 | 1051.09 | 1060.42 | 1069.37

Reference: the NIST ThermoML archive (doi:10.1021/je3013205)
